Data taken from patent US20050203056A1, “Carboxyl-reduced derivatives of hyaluronic acid, preparation thereof, use thereof as a medicinal product and the pharmaceutical compositions containing them” (Aventis Pharma S.A., priority 2003, published 2005).
One block for each substance: values may come before it.

Tests used:
aggrecanase = assay: Effect on the aggrecanase in synovial fluids or on preparations of recombinant ADAMTS protein (BC-3 ELISA, Agg1mut substrate); assay type: biochemical
Method: Effect of the carboxyl-reduced derivatives on the aggrecanase in synovial fluids or on preparations of recombinant ADAMTS protein.
The analysis is carried out on 96-well plates.
In each well, a fixed volume of synovial fluid or aggrecanase activity generating a known increase, between 1.0 and 1.4 absorbance units (405 nm), under the conditions of the analysis, is mixed with 3 μl of solution of compound from the respective dilution step. Dulbecco's modified Eagle's medium (DMEM) is added to each well to give a final volume of 300 μl. The plate is then incubated for 1 hour at 37° C. in a carbon dioxide atmosphere.
After the addition of 5 μl of a solution of […] of recombinant substrate Agglmut in DMEM to each well (substrate as described by Bartnik E. et al., EP 785274, 1997), the reagent mixture is incubated for 4 hours at 37° C. under a carbon dioxide atmosphere.
In a first step, the microplate is coated with 100 μl per well of a commercial goat anti-mouse IgG antibody for 1 hour at ambient temperature (5 μg/ml in a phosphate buffered saline solution, pH 7.4 [PBS buffer]). After washing with the PBS buffer containing 0.1% of Tween-20 (washing buffer), the wells are blocked by means of a step consisting of a one hour incubation with 100 μl per well of 5% bovine serum albumin in a PBS buffer containing 0.05% of Tween-20. Following another rinse with the washing buffer, each well is incubated with 100 μl of a solution, diluted to 1:1000, of BC-3 antibody in a PBS buffer containing 0.05% of Tween 20 and 0.5% of bovine serum albumin, at ambient temperature for one hour. This antibody recognizes the typical aggrecanase cleavage fragments (Hughes C. E. et al., Biochem. J. 305 (3), 799-804, 1995).
After another rinse of the analytical plate with the washing buffer, the complete set of mixtures originating from the preceding digestion is transferred to this plate, well by well, and incubated at ambient temperature for one hour. The plate is again washed as above. Next, 100 μl of the second antibody (anti-human IgG antibody labeled with peroxidase, 1:1000 in PBS containing 0.5% of BSA and 0.05% of Tween-20) are added to each well, with subsequent incubation at ambient temperature again for one hour. After a final rinse with the washing buffer, the color development is initiated by adding 100 μl of ABTS substrate solution (2 mg/ml, 2,2′-azinobis(3-ethyl-benzothiazoline)sulfonic acid) in 40 mM of sodium citrate plus 60 mM of disodium hydrogen phosphate, adjusted to a pH of 4.4 by adding acetic acid; 0.25 μl of 35% hydrogen peroxide added per ml immediately before measurement). […] The development is stopped as soon as the maximum signal (405 nm) in the absorbance range of 1.0 to 1.4 is reached.

bovine factor Xa [1] = biological target: T1, bovine factor Xa (Bos taurus, UniProt P00743); conditions: calibration reference; cited from earlier work
T1 sequence (P00743 234-492 limits assumed): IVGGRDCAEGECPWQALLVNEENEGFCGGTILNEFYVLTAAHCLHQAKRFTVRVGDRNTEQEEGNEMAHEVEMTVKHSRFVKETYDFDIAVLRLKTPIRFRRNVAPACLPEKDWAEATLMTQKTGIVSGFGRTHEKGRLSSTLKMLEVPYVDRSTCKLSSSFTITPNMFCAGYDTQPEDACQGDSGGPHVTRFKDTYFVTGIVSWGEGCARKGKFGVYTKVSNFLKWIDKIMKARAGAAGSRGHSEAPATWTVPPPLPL

bovine factor Xa [2] = biological target: T1, bovine factor Xa; conditions: calibrated against Enoxaparin
Method: For the calibration, a standard sample of low molecular weight heparin (Enoxaparin) was used as reference.
The serial dilutions of the assay compound are prepared in a 0.046 M Tris buffer, pH 8.4, containing 0.15 M NaCl, 0.007 M EDTA, 0.1% of Tween 80 and 0.12 IU/ml of human antithrombin III. The samples of 50 μl of the respective dilutions are incubated with 50 μl of bovine factor Xa (13.6 U/ml) at 37° C. for 80 seconds. Next, 50 μl of chromogenic substrate, 1.1 mM S-2765, are added. […] The activity of the deblocked factor Xa is indicated by the emission of p-nitroaniline from the substrate.

[3] = biological target: T2, human neutrophil elastase (Homo sapiens, UniProt P08246)
T2 sequence (P08246 30-267): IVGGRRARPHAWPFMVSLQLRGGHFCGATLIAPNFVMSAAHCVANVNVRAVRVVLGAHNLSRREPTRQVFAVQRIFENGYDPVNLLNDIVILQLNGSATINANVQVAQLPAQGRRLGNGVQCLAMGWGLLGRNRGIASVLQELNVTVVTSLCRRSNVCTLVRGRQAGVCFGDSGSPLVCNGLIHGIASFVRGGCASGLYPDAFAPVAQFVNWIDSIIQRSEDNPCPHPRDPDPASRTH
Method: A commercially available enzyme (for example, human neutrophil elastase, sigma No. E8140) is reconstituted in aliquots of 0.1 mg per vial with 0.276 ml of 50 mM sodium acetate buffer, pH 5.5, containing 200 mM NaCl (stock solution of the enzyme); 11 μl of this stock solution are diluted with 1.1 ml of the HEPES buffer above (enzyme assay solution).
The substrate solution is prepared by dissolving 118 mg of methoxy-succinyl-L-Ala-L-Ala-L-Pro-L-Val-p-nitro-anilide in 1 ml of DMSO (stock solution, for example sigma No. M4765). In view of the application in the analysis, 9 μl of stock solution are then diluted in 1.19 ml of water.
The serial dilutions of the assay compounds are prepared in 100 mM of HEPES buffer containing 500 mM NaCl. The analysis is carried out on colorless 96-well polystyrene microplates (for example, Corning Costar, No. 3695).
10 μl of assay enzyme solution are mixed with 10 μl of the respective diluted compound solution and 10 μl of the substrate solution. After incubation for 15 min, the cleavage of the substrate is read as increase in absorbance at 405 nm.

aggrecanase-inhibiting activity (aggrecanase): no aggrecanase-inhibiting activity
Substance: hyaluronic acid [reference compound]

Substance: Enoxaparin
factor Xa inhibitory activity of the reference standard (bovine factor Xa [1]): 100 U/mg

Substance: Carboxyl-Reduced and Persulfated Hyaluronic Acid Sodium Salt [example 3]
factor Xa inhibitory activity (bovine factor Xa [2]): 1.75 U/mg
IC50 [3]: 7.0 µg/mL
IC50 (μg/ml) for inhibition (aggrecanase): 0.025 µg/mL
% conversion (aggrecanase; glycosaminoglycan 0.0001 μg/ml): 93%
% conversion (aggrecanase; glycosaminoglycan 0.001 μg/ml): 84.9%
% conversion (aggrecanase; glycosaminoglycan 0.01 μg/ml): 54.3%
% conversion (aggrecanase; glycosaminoglycan 0.1 μg/ml): 28%
% conversion (aggrecanase; glycosaminoglycan 1 μg/ml): 27.4%
% conversion (aggrecanase; glycosaminoglycan 10 μg/ml): 21%

Substance: Carboxyl-Reduced Hyaluronic Acid Sodium Salt [example 1]
IC50 (μg/ml) for inhibition (aggrecanase): no
% conversion (aggrecanase; glycosaminoglycan 0.0001 μg/ml): 100%
% conversion (aggrecanase; glycosaminoglycan 0.001 μg/ml): 100%
% conversion (aggrecanase; glycosaminoglycan 0.01 μg/ml): 100%
% conversion (aggrecanase; glycosaminoglycan 0.1 μg/ml): 100%
% conversion (aggrecanase; glycosaminoglycan 1 μg/ml): 100%
% conversion (aggrecanase; glycosaminoglycan 10 μg/ml): 100%
